Measurements reported in patent US20250388604A1, “Compounds and Their Use as PDE4 Activators” (Mironid Limited, priority 2022, published 2025).

test system: m-IMCD3 cells; test: Inhibition of PGE2-stimulated in vitro cyst formation in m-IMCD3 cells; format: cell-based, mouse; settings: Mus musculus, mIMCD3, 144 h, 3 μM; mean cyst area, 100% for (DMSO + PGE2) and 0% for DMSO control; 6 days of culture; read-out: % Cyst area after incubation with 3 μM test compound
Method: HEK 293 and MDCK cells (Public Health England, Cell Culture Collections) were maintained in Dulbecco's Modified Eagle's Medium (DMEM) supplemented with 10% (v/v) fetal bovine serum (FBS) (Seralab), 2 mM L-glutamine and 100 U/mL penicillin streptomycin cocktail (ThermoFisher); termed complete media. Clonal HEK 293 cell lines were maintained in complete media supplemented with 0.6 mg/ml G418 (Enzo Life Sciences). Mouse inner medullary collecting duct (m-IMCD3) cells [American Type Culture Collection (ATCC)] were maintained in media consisting of DMEM/Hams F-12 50/50 Mix (DMEM F12; Corning) supplemented with penicillin streptomycin cocktail (100 U/mL) and FBS (10% v/v) (DMEM F12-10% FBS).
The mouse Inner Medullary Collecting Duct cell line (m-IMCD3) spontaneously forms cystic spheroids in 3D culture with a Type 1 collagen/Matrigel extracellular matrix. This process can be stimulated with agents which raise intracellular cAMP and is used as an in vitro model for the formation of cystic structures in the kidneys of patients with ADPKD.
Rat Collagen I (Fisher Scientific) is prepared on ice by neutralising with 1M NaOH and diluting with a 2× volume of DMEM/F12+10% FBS. This is mixed 1:1.1 with ice cold Matrigel (Corning) for coating plates (coating mix), and 1:0.93 with Matrigel for cell plating (plating mix).
The assay is conducted in the wells of a 96-well plate culture dish using a total volume of 130 μL of collagen/Matrigel/DMEM F12-10% FBS suspension in growth media for each matrix plug per individual well. Initially, 30 μL of collagen/Matrigel/DMEM F12-10% FBS (coating mix) is added into the well of a 96 well plate and the collagen is set to a gel by incubating at 37° C. for at least 15 minutes. A second layer of 100 μL collagen/Matrigel suspension (plating mix) containing m-IMCD3 cells (2.75×10^6 m-IMCD3 cells per 96-well plate) is layered over the coating mix and the collagen/Matrigel/cell mix again set to a gel by incubating at 37° C. Cell cultures are maintained at 37° C. in an atmosphere of 5% CO2, 95% air.
Between 18 and 24 h after plating, test compound(s) as DMSO stock solutions [0.1% (v/v) final DMSO concentration] and PGE2 (100 nM final concentration) in DMEM F12-10% FBS are added in quadruplicate wells per condition. Media, together with the test compound and PGE2 are replenished after 2 or 3 days. After 6 days of culture z stack images of the wells are captured using the Nikon Eclipse Ti2-E microscope. Nikon General Analysis software is used to measure the following parameters in each well: the mean cyst area, the number of cysts, and the total cyst area.
PDE4 long form activators inhibited in vitro cyst formation in m-IMCD3 cells. Data are shown in Table 4 as mean cyst area (%), compared to 100% for (DMSO+PGE2) and 0% for DMSO control.

With `O=C(c1ccc(F)cc1)N1CCc2nc(N3C4CCC3CNC4)sc2C1` [Example 198, (2-(3,8-diazabicyclo[3.2.1]octan-8-yl)-6,7-dihydrothiazolo[5,4-c]pyridin-5(4H)-yl)(4-fluorophenyl)methanone] as the molecule, how does the activity at 3 µM read?
The activity at 3 µM was -5%.

For `N#Cc1ccccc1C(=O)N1CCc2nc(N3C4CCC3CNC4)sc2C1` [Example 213, 2-(2-(3,8-diazabicyclo[3.2.1]octan-8-yl)-4,5,6,7-tetrahydrothiazolo[5,4-c]pyridine-5-carbonyl)benzonitrile], which activity at 3 µM is on record?
Its activity at 3 µM is 17%.

With `O=C(c1coc2ccccc12)N1CCc2nc(N3C4CCC3CNC4)sc2C1` [Example 187, (2-(3,8-diazabicyclo[3.2.1]octan-8-yl)-6,7-dihydrothiazolo[5,4-c]pyridin-5(4H)-yl)(benzofuran-3-yl)methanone] as the molecule, how does the activity at 3 µM read?
Its activity at 3 µM is -8%.

For `O=C(c1cccc2c1CCO2)N1CCc2nc(N3C4CCC3CNC4)sc2C1` [Example 236, (2-(3,8-diazabicyclo[3.2.1]octan-8-yl)-6,7-dihydrothiazolo[5,4-c]pyridin-5(4H)-yl)(2,3-dihydrobenzofuran-4-yl)methanone], which activity at 3 µM is on record?
The activity at 3 µM was 27%.

With `O=C(C1Cc2ccccc2CO1)N1CCc2nc(N3C4CCC3CNC4)sc2C1` (stereo not drawn) [Example 183, (2-(3,8-diazabicyclo[3.2.1]octan-8-yl)-6,7-dihydrothiazolo[5,4-c]pyridin-5(4H)-yl)(isochroman-3-yl)methanone] as the molecule, how does the activity at 3 µM read?
Its activity at 3 µM is 0%.

Which activity at 3 µM does the source give for `O=C(CC1CCCC1)N1Cc2sc(N3C4CCC3CNC4)nc2C2(CC2)C1` [Example 265, 1-(2′-(3,8-diazabicyclo[3.2.1]octan-8-yl)-4′H-spiro[cyclopropane-1,7′-thiazolo[5,4-c]pyridin]-5′(6′H)-yl)-2-cyclopentylethan-1-one] here?
Its activity at 3 µM is -3%.

With `COCCOc1ccccc1OCC(=O)N1CCc2nc(N3C4CCC3CNC4)sc2C1` [Example 129, 1-(2-(3,8-diazabicyclo[3.2.1]octan-8-yl)-6,7-dihydrothiazolo[5,4-c]pyridin-5(4H)-yl)-2-(2-(2-methoxyethoxy)phenoxy)ethan-1-one] as the molecule, how does the activity at 3 µM read?
The activity at 3 µM was 3%.

For `O=C(c1ccc(OC(F)(F)F)cc1)N1CCc2nc(N3C4CCC3CNC4)sc2C1` [Example 208, (2-(3,8-diazabicyclo[3.2.1]octan-8-yl)-6,7-dihydrothiazolo[5,4-c]pyridin-5(4H)-yl)(4-(trifluoromethoxy)phenyl)methanone], which activity at 3 µM is on record?
Its activity at 3 µM is 8%.

For `Cc1ccccc1C(=O)N1CCc2nc(N3C4CCC3CNC4)sc2C1` [Example 194, (2-(3,8-diazabicyclo[3.2.1]octan-8-yl)-6,7-dihydrothiazolo[5,4-c]pyridin-5(4H)-yl)(o-tolyl)methanone], which activity at 3 µM is on record?
Its activity at 3 µM is 1%.

With `CC(C)Oc1ccccc1C(=O)N1CCc2nc(N3C4CCC3CNC4)sc2C1` [Example 211, (2-(3,8-diazabicyclo[3.2.1]octan-8-yl)-6,7-dihydrothiazolo[5,4-c]pyridin-5(4H)-yl)(2-isopropoxyphenyl)methanone] as the molecule, how does the activity at 3 µM read?
The activity at 3 µM was 40%.

How did the activity at 3 µM turn out when `O=C(c1ccc(F)cn1)N1CCc2nc(N3C4CCC3CNC4)sc2C1` [Example 202, (2-(3,8-diazabicyclo[3.2.1]octan-8-yl)-6,7-dihydrothiazolo[5,4-c]pyridin-5(4H)-yl)(5-fluoropyridin-2-yl)methanone] was run?
Its activity at 3 µM is -4%.

`COc1cccc(OC)c1OCC(=O)N1CCc2nc(N3C4CCC3CNC4)sc2C1` [Example 172, 1-(2-(3,8-diazabicyclo[3.2.1]octan-8-yl)-6,7-dihydrothiazolo[5,4-c]pyridin-5(4H)-yl)-2-(2,6-dimethoxyphenoxy)ethan-1-one] was tested. Which activity at 3 µM did it give?
Its activity at 3 µM is 10%.

For `O=C(c1ccc(OC(F)F)cc1)N1CCc2nc(N3C4CCC3CNC4)sc2C1` [Example 204, (2-(3,8-diazabicyclo[3.2.1]octan-8-yl)-6,7-dihydrothiazolo[5,4-c]pyridin-5(4H)-yl)(4-(difluoromethoxy)phenyl)methanone], which activity at 3 µM is on record?
The activity at 3 µM was 4%.

Which activity at 3 µM does the source give for `CC1(C)CN(C(=O)[C@H](O)C2CCCC2)Cc2sc(N3C4CCC3CNC4)nc21` [Example 262, (2R)-1-(2-(3,8-diazabicyclo[3.2.1]octan-8-yl)-7,7-dimethyl-6,7-dihydrothiazolo[5,4-c]pyridin-5(4H)-yl)-2-cyclopentyl-2-hydroxyethan-1-one] here?
Its activity at 3 µM is 23%.

For `O=C(c1ccccc1OC(F)(F)F)N1CCc2nc(N3C4CCC3CNC4)sc2C1` [Example 207, (2-(3,8-diazabicyclo[3.2.1]octan-8-yl)-6,7-dihydrothiazolo[5,4-c]pyridin-5(4H)-yl)(2-(trifluoromethoxy)phenyl)methanone], which activity at 3 µM is on record?
Its activity at 3 µM is 0%.

same assay, conditions: Mus musculus, mIMCD3, 144 h, 10 μM; mean cyst area, 100% for (DMSO + PGE2) and 0% for DMSO control; 6 days of culture; read-out: % Cyst area after incubation with 10 μM test compound

How did the activity at 10 µM turn out when `CC(C)NC(=O)N1CCc2nc(N3C4CCC3CNC4)sc2C1` [Example 51, 2-(3,8-diazabicyclo[3.2.1]octan-8-yl)-N-isopropyl-6,7-dihydrothiazolo[5,4-c]pyridine-5(4H)-carboxamide] was run?
The activity at 10 µM was 9%.

How did the activity at 10 µM turn out when `O=C(COc1ccc(F)cc1)N1CCc2nc(N3C4CCC3CNC4)sc2C1` [Example 21, 1-(2-(3,8-diazabicyclo[3.2.1]octan-8-yl)-6,7-dihydrothiazolo[5,4-c]pyridin-5(4H)-yl)-2-(4-fluorophenoxy)ethan-1-one] was run?
Its activity at 10 µM is -1%.

For `O=C(CC1CCCC1)N1Cc2sc(N3C4CCC3CNC4)nc2C2(CCOCC2)C1` [Example 266, 1-(2′-(3,8-diazabicyclo[3.2.1]octan-8-yl)-2,3,5,6-tetrahydro-4′H-spiro[pyran-4,7′-thiazolo[5,4-c]pyridin]-5′(6′H)-yl)-2-cyclopentylethan-1-one], which activity at 10 µM is on record?
The activity at 10 µM was 40%.

With `CN1CC2CCC(C1)N2c1nc2c(s1)CN(C(=O)CC1CCC(F)(F)CC1)CC2(C)C` [Example 103, 2-(4,4-difluorocyclohexyl)-1-(7,7-dimethyl-2-(3-methyl-3,8-diazabicyclo[3.2.1]octan-8-yl)-6,7-dihydrothiazolo[5,4-c]pyridin-5(4H)-yl)ethan-1-one] as the molecule, how does the activity at 10 µM read?
Its activity at 10 µM is -1%.

`O=C(CC1CCC1)N1CCc2nc(N3C4CCC3CNC4)sc2C1` [Example 11, 1-(2-(3,8-diazabicyclo[3.2.1]octan-8-yl)-6,7-dihydrothiazolo[5,4-c]pyridin-5(4H)-yl)-2-cyclobutylethan-1-one] was tested. Which activity at 10 µM did it give?
The activity at 10 µM was -3%.

Which activity at 10 µM does the source give for `CC[C@@H](C)C(=O)N1CCc2nc(N3C4CCC3CNC4)sc2C1` [Example 16, (2R)-1-(2-(3,8-diazabicyclo[3.2.1]octan-8-yl)-6,7-dihydrothiazolo[5,4-c]pyridin-5(4H)-yl)-2-methylbutan-1-one] here?
Its activity at 10 µM is -2%.

For `CN1CC2CCC(C1)N2c1nc2c(s1)CN(C(=O)COc1ccnc(F)c1)CC2` [Example 79, 2-((2-fluoropyridin-4-yl)oxy)-1-(2-(3-methyl-3,8-diazabicyclo[3.2.1]octan-8-yl)-6,7-dihydrothiazolo[5,4-c]pyridin-5(4H)-yl)ethan-1-one], which activity at 10 µM is on record?
The activity at 10 µM was -2%.

`CC1(C)CN(C(=O)CC2CCC(F)(F)CC2)Cc2sc(N3CCNCC3)nc21` [Example 100, 2-(4,4-difluorocyclohexyl)-1-(7,7-dimethyl-2-(piperazin-1-yl)-6,7-dihydrothiazolo[5,4-c]pyridin-5(4H)-yl)ethan-1-one] was tested. Which activity at 10 µM did it give?
The activity at 10 µM was -1%.

For `O=C(C1CCCO1)N1CCc2nc(N3C4CCC3CNC4)sc2C1` (stereo not drawn) [Example 133, (2-(3,8-diazabicyclo[3.2.1]octan-8-yl)-6,7-dihydrothiazolo[5,4-c]pyridin-5(4H)-yl)(tetrahydrofuran-2-yl)methanone], which activity at 10 µM is on record?
The activity at 10 µM was 19%.

`COc1cc(F)ccc1CC(=O)N1CCc2nc(N3C4CCC3CNC4)sc2C1` [Example 140, 1-(2-(3,8-diazabicyclo[3.2.1]octan-8-yl)-6,7-dihydrothiazolo[5,4-c]pyridin-5(4H)-yl)-2-(4-fluoro-2-methoxyphenyl)ethan-1-one] was tested. Which activity at 10 µM did it give?
The activity at 10 µM was 0%.

Which activity at 10 µM does the source give for `CCC(C)(C)C(=O)N1CCc2nc(N3C4CCC3CNC4)sc2C1` [Example 154, 1-(2-(3,8-diazabicyclo[3.2.1]octan-8-yl)-6,7-dihydrothiazolo[5,4-c]pyridin-5(4H)-yl)-2,2-dimethylbutan-1-one] here?
The activity at 10 µM was -13%.

For `CC(C)C(O)C(=O)N1CCc2nc(N3C4CCC3CNC4)sc2C1` (stereo not drawn) [Example 28, 1-(2-(3,8-diazabicyclo[3.2.1]octan-8-yl)-6,7-dihydrothiazolo[5,4-c]pyridin-5(4H)-yl)-2-hydroxy-3-methylbutan-1-one], which activity at 10 µM is on record?
Its activity at 10 µM is 3%.
